We go through one compound from patent US12128035B2, “Activating pyruvate kinase R” (Novo Nordisk Health Care AG, priority 2021, dated 2024).

One data set deals with ATP blood levels. As to the kind of experiment: Phase 1: blood ATP in SCD patients. In kind it is in vivo, human. How it is done: In this study, SAD/MAD cohorts are randomized (3 to 1) to receive Compound 1 or placebo (P). Compound 1 was evaluated first in 4 healthy SAD cohorts and 4 healthy MAD (14-day dosing period) cohorts. Based on the safety, and PK/PD profile from HS, Compound 1 is then evaluated in 1 SCD SAD cohort and 2 SCD MAD cohorts. Specifically, based on the safety and pharmacokinetic/pharmacodynamics (PK/PD) profile in healthy volunteer studies, Compound 1 is evaluated in patients (pts) with SCD, first in a single dose (SD or SAD) cohort and then in multiple-dose (MD or MAD) cohorts (14-day and 12-week). Safety assessments include AEs, vital signs, ECGs and laboratory parameters. PK/PD blood sampling was performed on Day 1 (SAD/MAD) and Day 14 (MAD) and up to 72 h after the last dose and at the end-of-study visit. PD parameters included 2,3-DPG, ATP, and p50 in all cohorts with additional PD studies (including oxygen scan) performed only in the SCD cohorts. PD parameters included 2,3-DPG, ATP, p50, RBC deformability with controlled deoxygenation and reoxygenation (Lorrca® oxygen scan) and varying osmolality (Lorrca® osmoscan)). To maintain study blind, pt identifiers were removed when needed.
The onset of the increase in ATP blood levels after a single 700 mg dose of Compound 1 was faster in SCD patients than in healthy volunteers, while the onset of the decrease in 2,3-DPG blood levels was slower.
The following procedures are employed for the analysis of ATP and 2,3-DPG in human whole blood K2EDTA using a protein precipitation extraction procedure and analysis by LC-MS/MS.
The following procedures are used for sample extraction prior to analysis via LC-MS/MS. 15.0 μL of the calibration standards, quality controls, matrix blanks, and samples are aliquoted into a 96-well plate. 50.0 μL of the internal standard spiking solution is added to all samples on the plate, with the exception of the matrix blank samples; 50.0 μL of water is added to the matrix blank samples. Subsequently, 150 μL of water is added to all samples on the plate. The plate is then covered and agitated by vortex at high speed for ten minutes, after which 750 μL of methanol is added to all samples on the plate. The plate is covered and agitated by vortex for approximately 1 minute. The plate is then centrifuged at approximately 3500 RPM at approximately 4° C. for five minutes. After centrifugation, a liquid handler is used to transfer 50 μL of each sample to a new 96-well plate, and 200 μL of acetonitrile is added to all samples on the plate. The newly prepared plate is covered and agitated by vortex for approximately 1 minute. The plate is then centrifuged at approximately 3500 RPM at approximately 4° C. for 2 minutes.

The format of data set [1] is physicochemical. An excerpt:
[drawing 2] is a selective, orally bioavailable PKR Activating Compound that decreases 2,3-DPG, increases ATP, and has anti-sickling effects in disease models with a wide therapeutic margin relative to preclinical toxicity. Compound 1 is a potent activator of PKR and a multi-modal metabolic modulator of RBCs. Activation of PKR simultaneously reduces 2,3-DPG concentrations, which increases hemoglobin-oxygen affinity and decreases sickling, while also increasing intracellular ATP, which improves RBC health and reduces hemolysis, or RBC death. Compound 1 is a BCS class II compound with poor water solubility and high permeability.

Data set [2] can be described thus: Phase 1 food effect cohort in healthy subjects. To be noted: 400 mg with and without food. In kind it is in vivo, human. How it is done:
Four healthy SAD cohorts were evaluated at doses of 200, 400, 700, and 1000 mg, and four healthy MAD cohorts received 200 to 600 mg total daily doses for 14 days at QD or BID dosing (100 mg BID, 200 mg BID, 300 mg BID, and 400 mg QD). In the food effect (FE) cohort, 10 healthy subjects received 400 mg of Compound 1 QD with and without food. […] FIG. 22 illustrates plasma Compound 1 pharmacokinetics in healthy volunteers following a single dose. […] No significant changes in exposure were observed after 14 days of dosing. Compound 1 exposure under fed/fasted conditions was similar.

`O=C([C@H](CO)c1ccccc1)N1CC2=C(C1)CN(S(=O)(=O)c1cnc3c(c1)OCCO3)C2` (single isomer, unassigned) [Compound 1]: the “mean percentage change in ATP blood levels” value in the data set on ATP blood levels (SCD 300 mg QD, Day 1, 0 h after first daily dose) is reported as 0%; in the data set with ATP blood levels (SCD 300 mg QD, Day 1, 24 h after first daily dose), 14%; in the data set on ATP blood levels (SCD 300 mg QD, Day 14, 0 h after first daily dose), 47%; in the data set on ATP blood levels (SCD 300 mg QD, Day 14, 6 h after first daily dose), 44%; in the data set with ATP blood levels (SCD 300 mg QD, Day 14, 24 h after first daily dose), 45%; with ATP blood levels (SCD 300 mg QD, Day 14, 48 h after first daily dose), 35%. The “mean percentage change in ATP blood levels” value came out at 0% with ATP blood levels (SCD single 700 mg, 0 h after dose); 14% with ATP blood levels (SCD single 700 mg, 6 h after dose); 30% in the data set on ATP blood levels (SCD single 700 mg, 24 h after dose); 30% with ATP blood levels (SCD single 700 mg, 48 h after dose); 32% in the data set with ATP blood levels (SCD single 700 mg, 72 h after dose). The “lag of maximum increase in blood ATP behind maximum plasma concentration” value with ATP blood levels (SCD single 700 mg, FIG. 54A) is “at least 24 hours”. Further, in the data set with ATP blood levels (SCD, 24 hours after single 700-mg dose, FIG. 46A), the “increase in ATP blood concentrations” value was 30%. Besides, the BCS class result in data set [1] is “BCS class II”. Besides, the “exposure under fed/fasted conditions” value in data set [2] is “similar”.
